In PubChem BioAssay (NCI):
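The concentration for 50% growth inhibition is given as GI50. The concentration for full growth arrest is given as TGI.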

Assays:
Assay in all cases: NCI anticancer screen, dose series, 384-well format
SF-268 CNS = tested on: SF-268 CNS
NCI/ADR-RES ovarian = tested on: NCI/ADR-RES ovarian
BT-549 breast = tested on: BT-549 breast
OVCAR-3 ovarian = tested on: OVCAR-3 ovarian
RXF 393 renal = tested on: RXF 393 renal
786-0 renal = tested on: 786-0 renal
EKVX NSCLC = tested on: EKVX NSCLC
SF-539 CNS = tested on: SF-539 CNS
RPMI-8226 leukemia = tested on: RPMI-8226 leukemia
CAKI-1 renal = tested on: CAKI-1 renal
HCT-15 colon = tested on: HCT-15 colon
SF-295 CNS = tested on: SF-295 CNS
OVCAR-5 ovarian = tested on: OVCAR-5 ovarian
CCRF-CEM leukemia = tested on: CCRF-CEM leukemia
OVCAR-8 ovarian = tested on: OVCAR-8 ovarian
SW-620 colon = tested on: SW-620 colon
HT29 colon = tested on: HT29 colon
LOX IMVI melanoma = tested on: LOX IMVI melanoma
MDA-MB-435 melanoma = tested on: MDA-MB-435 melanoma
UACC-62 melanoma = tested on: UACC-62 melanoma
MCF7 breast = tested on: MCF7 breast
UACC-257 melanoma = tested on: UACC-257 melanoma
PC-3 prostate = tested on: PC-3 prostate
NCI-H23 lung = tested on: NCI-H23 lung
HOP-92 NSCLC = tested on: HOP-92 NSCLC
SNB-75 CNS = tested on: SNB-75 CNS
NCI-H460 NSCLC = tested on: NCI-H460 NSCLC
MDA-MB-231 breast = tested on: MDA-MB-231 breast
MOLT-4 leukemia = tested on: MOLT-4 leukemia
IGROV1 ovarian = tested on: IGROV1 ovarian
MALME-3M melanoma = tested on: MALME-3M melanoma
U251 glioblastoma = tested on: U251 glioblastoma
MDA-MB-468 breast = tested on: MDA-MB-468 breast
T-47D breast = tested on: T-47D breast
A549 NSCLC = tested on: A549 NSCLC
TK-10 renal = tested on: TK-10 renal
SK-MEL-28 melanoma = tested on: SK-MEL-28 melanoma
KM12 colon = tested on: KM12 colon
ACHN renal = tested on: ACHN renal
HS 578T breast = tested on: HS 578T breast
SR leukemia = tested on: SR leukemia
OVCAR-4 ovarian = tested on: OVCAR-4 ovarian
COLO 205 colon = tested on: COLO 205 colon
HL-60(TB) leukemia = tested on: HL-60(TB) leukemia
SK-MEL-5 melanoma = tested on: SK-MEL-5 melanoma
NCI-H226 lung = tested on: NCI-H226 lung
HOP-62 NSCLC = tested on: HOP-62 NSCLC
M14 melanoma = tested on: M14 melanoma
NCI-H322M lung = tested on: NCI-H322M lung
SNB-19 CNS = tested on: SNB-19 CNS
A498 renal = tested on: A498 renal
SN12C renal = tested on: SN12C renal
K-562 leukemia = tested on: K-562 leukemia
NCI-H522 lung = tested on: NCI-H522 lung
SK-OV-3 ovarian = tested on: SK-OV-3 ovarian
UO-31 renal = tested on: UO-31 renal
HCC-2998 colon = tested on: HCC-2998 colon
DU-145 prostate = tested on: DU-145 prostate

Compound `COc1cc2c(Oc3ccc4[nH]c(C)cc4c3F)ncnc2cc1OCCCN1CCCC1` has a GI50 (SF-268 CNS) of 1.66 µM, a TGI (SF-268 CNS) of 3.22 µM and a GI50 (NCI/ADR-RES ovarian) of 2.35 µM. For the same compound, the TGI (NCI/ADR-RES ovarian) was 5.9 µM, the GI50 (BT-549 breast) was 1.04 µM and the TGI (BT-549 breast) was 2.22 µM. It also gave a GI50 (OVCAR-3 ovarian) of 1.63 µM, a TGI (OVCAR-3 ovarian) of 3.06 µM and a GI50 (RXF 393 renal) of 1.38 µM. For the same compound, the TGI (RXF 393 renal) was 2.69 µM, the GI50 ([…]-0 renal) was 1.33 µM and the TGI (786-0 renal) was 2.63 µM. It also gave a GI50 (EKVX NSCLC) of 1.16 µM, a TGI (EKVX NSCLC) of 2.84 µM and a GI50 (SF-539 CNS) of 0.488 µM. It also gave a TGI (SF-539 CNS) of 1.83 µM, a GI50 (RPMI-8226 leukemia) of 1.61 µM and a TGI (RPMI-8226 leukemia) of 2.97 µM. The GI50 (CAKI-1 renal) was 1.05 µM, the TGI (CAKI-1 renal) was 2.36 µM and the GI50 (HCT-15 colon) was 1.21 µM. For the same compound, the TGI (HCT-15 colon) was 2.53 µM, the GI50 (SF-295 CNS) was 1.73 µM and the TGI (SF-295 CNS) was 3.13 µM. It also gave a GI50 (OVCAR-5 ovarian) of 1.39 µM, a TGI (OVCAR-5 ovarian) of 3.18 µM and a GI50 (CCRF-CEM leukemia) of 1.63 µM. It also gave a TGI (CCRF-CEM leukemia) of 2.99 µM, a GI50 (OVCAR-8 ovarian) of 1.58 µM and a TGI (OVCAR-8 ovarian) of 2.96 µM. For the same compound, the GI50 (SW-620 colon) was 1.63 µM, the TGI (SW-620 colon) was 3.1 µM and the GI50 (HT29 colon) was 1.46 µM. For the same compound, the TGI (HT29 colon) was 2.8 µM, the GI50 (LOX IMVI melanoma) was 1.62 µM and the TGI (LOX IMVI melanoma) was 2.99 µM. For the same compound, the GI50 (MDA-MB-435 melanoma) was 1.77 µM, the TGI (MDA-MB-435 melanoma) was 3.41 µM and the GI50 (UACC-62 melanoma) was 1.63 µM. For the same compound, the TGI (UACC-62 melanoma) was 3 µM, the GI50 (MCF7 breast) was 1.4 µM and the TGI (MCF7 breast) was 2.74 µM. It also gave a GI50 (UACC-257 melanoma) of 1.61 µM, a TGI (UACC-257 melanoma) of 2.97 µM and a GI50 (PC-3 prostate) of 1.77 µM. The TGI (PC-3 prostate) was 3.3 µM, the GI50 (NCI-H23 lung) was 1.15 µM and the TGI (NCI-H23 lung) was 2.8 µM. For the same compound, the GI50 (HOP-92 NSCLC) was 0.578 µM, the TGI (HOP-92 NSCLC) was 1.92 µM and the GI50 (SNB-75 CNS) was 1.32 µM. It also gave a TGI (SNB-75 CNS) of 2.74 µM, a GI50 (NCI-H460 NSCLC) of 1.78 µM and a TGI (NCI-H460 NSCLC) of 3.27 µM. For the same compound, the GI50 (MDA-MB-231 breast) was 1.76 µM, the TGI (MDA-MB-231 breast) was 3.53 µM and the GI50 (MOLT-4 leukemia) was 1.38 µM. It also gave a TGI (MOLT-4 leukemia) of 2.68 µM, a GI50 (IGROV1 ovarian) of 0.632 µM and a TGI (IGROV1 ovarian) of 1.95 µM. For the same compound, the GI50 (MALME-3M melanoma) was 1.54 µM, the TGI (MALME-3M melanoma) was 2.88 µM and the GI50 (U251 glioblastoma) was 1.58 µM. For the same compound, the TGI (U251 glioblastoma) was 3 µM, the GI50 (MDA-MB-468 breast) was 1.04 µM and the TGI (MDA-MB-468 breast) was 2.24 µM. The GI50 (T-47D breast) was 1.3 µM, the TGI (T-47D breast) was 2.58 µM and the GI50 (A549 NSCLC) was 1.46 µM. For the same compound, the TGI (A549 NSCLC) was 2.97 µM, the GI50 (TK-10 renal) was 1.76 µM and the TGI (TK-10 renal) was 3.28 µM. For the same compound, the GI50 (SK-MEL-28 melanoma) was 1.66 µM, the TGI (SK-MEL-28 melanoma) was 3.03 µM and the GI50 (KM12 colon) was 1.81 µM. For the same compound, the TGI (KM12 colon) was 3.28 µM, the GI50 (ACHN renal) was 1.2 µM and the TGI (ACHN renal) was 2.64 µM. For the same compound, the GI50 (HS 578T breast) was 1.26 µM, the TGI (HS 578T breast) was 2.53 µM and the GI50 (SR leukemia) was 1.56 µM. For the same compound, the TGI (SR leukemia) was 2.91 µM, the GI50 (OVCAR-4 ovarian) was 1.14 µM and the TGI (OVCAR-4 ovarian) was 2.43 µM. For the same compound, the GI50 (COLO 205 colon) was 1.69 µM, the TGI (COLO 205 colon) was 3.35 µM and the GI50 (HL-60(TB) leukemia) was 1.93 µM. For the same compound, the TGI (HL-60(TB) leukemia) was 3.35 µM, the GI50 (SK-MEL-5 melanoma) was 1.3 µM and the TGI (SK-MEL-5 melanoma) was 2.58 µM. The GI50 (NCI-H226 lung) was 0.306 µM, the TGI (NCI-H226 lung) was 1.96 µM and the GI50 (HOP-62 NSCLC) was 1.5 µM. For the same compound, the TGI (HOP-62 NSCLC) was 2.93 µM, the GI50 (M14 melanoma) was 1.68 µM and the TGI (M14 melanoma) was 3.06 µM. It also gave a GI50 (NCI-H322M lung) of 1.79 µM, a TGI (NCI-H322M lung) of 4.56 µM and a GI50 (SNB-19 CNS) of 1.57 µM. It also gave a TGI (SNB-19 CNS) of 4.71 µM, a GI50 (A498 renal) of 1.24 µM and a TGI (A498 renal) of 2.59 µM. For the same compound, the GI50 (SN12C renal) was 0.591 µM, the TGI (SN12C renal) was 2.41 µM and the GI50 (K-562 leukemia) was 1.13 µM. It also gave a TGI (K-562 leukemia) of 2.37 µM, a GI50 (NCI-H522 lung) of 1.55 µM and a TGI (NCI-H522 lung) of 2.91 µM. It also gave a GI50 (SK-OV-3 ovarian) of 1.26 µM, a TGI (SK-OV-3 ovarian) of 2.53 µM and a GI50 (UO-31 renal) of 1.39 µM. For the same compound, the TGI (UO-31 renal) was 2.77 µM, the GI50 (HCC-2998 colon) was 1.59 µM and the TGI (HCC-2998 colon) was 2.97 µM. The GI50 (DU-145 prostate) was 1.92 µM and the TGI (DU-145 prostate) was 3.77 µM.
